Test results reported in ChEMBL document CHEMBL1201862, “PubChem BioAssay data set” (2004).
Activity calls are given as the source filed them. Unless noted, no cut-off for these calls is given here.

Tests used:
Format in all cases: functional
[1] = target: DNA dC->dU-editing enzyme APOBEC-3G (Homo sapiens, UniProt Q9HC16); test: APOBEC3G deaminase inhibitors, SAR follow-up, biochemical, fluorescence, single-stranded DNA substrate (AID 602136); conditions: read-out: IC50_Mean
[2] = target: DNA dC->dU-editing enzyme APOBEC-3A (Homo sapiens, UniProt P31941); test: SAR analysis of small molecule inhibitors of APOBEC3A DNA Deaminase via a fluorescence-based single-stranded DNA deaminase assay.; conditions: read-out: IC50_Mean
[3] = target: T1, Sphingosine 1-phosphate receptor 2 (Homo sapiens, UniProt O95136); test: Late-stage fluorescence-based dose-response cell-based counterscreen assay to identify agonists of the Sphingosine 1-Phosphate Receptor 3 (S1P3): Sphingosine 1-Phosphate Receptor 2 (S1P2) agonist assay.
[4] = target: Sphingosine 1-phosphate receptor 4 (Homo sapiens, UniProt O95977); test: Late-stage fluorescence-based dose-response cell-based counterscreen assay to identify agonists of the Sphingosine 1-Phosphate Receptor 3 (S1P3): Sphingosine 1-Phosphate Receptor 4 (S1P4) agonist assay.
[5] = target: Sphingosine 1-phosphate receptor 1 (Homo sapiens, UniProt P21453); test: Late-stage fluorescence-based dose-response cell-based counterscreen assay to identify agonists of the Sphingosine 1-Phosphate Receptor 4 (S1P4): Sphingosine 1-Phosphate Receptor 1 (S1P1) agonist assay Set 2.
[6] = target: Sphingosine 1-phosphate receptor 5 (Homo sapiens, UniProt Q9H228); test: S1P5 receptor agonists, human, late-stage follow-up, counter-screen for S1P4 agonist project, cell-based, fluorescence, set 2 (AID 504867)
[7] = target: Sphingosine 1-phosphate receptor 3 (Homo sapiens, UniProt Q99500); test: Late-stage fluorescence-based dose-response cell-based counterscreen assay to identify agonists of the Sphingosine 1-Phosphate Receptor 4 (S1P4): Sphingosine 1-Phosphate Receptor 3 (S1P3) agonist assay Set 2.
[8] = target: T1, Sphingosine 1-phosphate receptor 2; test: S1P2 receptor agonists, human, late-stage follow-up, counter-screen for S1P4 agonist project, cell-based, fluorescence, set 2 (AID 504873)

T1 sequence (O95136 whole entry): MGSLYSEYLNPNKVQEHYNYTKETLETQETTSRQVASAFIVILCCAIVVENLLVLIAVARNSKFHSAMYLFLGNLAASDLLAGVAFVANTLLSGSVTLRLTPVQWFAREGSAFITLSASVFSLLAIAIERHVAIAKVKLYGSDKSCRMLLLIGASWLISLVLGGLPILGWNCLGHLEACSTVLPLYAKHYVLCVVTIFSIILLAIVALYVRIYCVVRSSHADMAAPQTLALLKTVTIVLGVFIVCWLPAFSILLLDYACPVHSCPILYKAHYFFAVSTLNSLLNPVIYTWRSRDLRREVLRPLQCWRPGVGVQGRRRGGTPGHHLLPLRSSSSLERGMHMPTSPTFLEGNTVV
DNA dC->dU-editing enzyme APOBEC-3A, sequence (P31941 whole entry): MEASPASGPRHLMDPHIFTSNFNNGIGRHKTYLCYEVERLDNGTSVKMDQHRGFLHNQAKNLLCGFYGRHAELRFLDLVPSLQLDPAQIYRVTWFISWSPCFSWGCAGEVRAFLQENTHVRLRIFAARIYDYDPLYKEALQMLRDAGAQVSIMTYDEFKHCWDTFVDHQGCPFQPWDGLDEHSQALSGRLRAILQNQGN
Sphingosine 1-phosphate receptor 1, sequence (P21453 whole entry): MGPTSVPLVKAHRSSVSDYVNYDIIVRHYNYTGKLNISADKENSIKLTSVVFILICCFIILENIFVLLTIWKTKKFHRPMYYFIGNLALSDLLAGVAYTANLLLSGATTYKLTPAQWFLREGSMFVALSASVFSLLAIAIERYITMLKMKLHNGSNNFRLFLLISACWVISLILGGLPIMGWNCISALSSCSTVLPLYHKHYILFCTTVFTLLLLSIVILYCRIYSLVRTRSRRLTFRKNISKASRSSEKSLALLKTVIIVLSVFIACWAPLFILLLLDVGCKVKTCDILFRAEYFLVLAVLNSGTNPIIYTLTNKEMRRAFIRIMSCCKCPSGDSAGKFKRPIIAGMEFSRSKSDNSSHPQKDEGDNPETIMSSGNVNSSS
Sphingosine 1-phosphate receptor 4, sequence (O95977 whole entry): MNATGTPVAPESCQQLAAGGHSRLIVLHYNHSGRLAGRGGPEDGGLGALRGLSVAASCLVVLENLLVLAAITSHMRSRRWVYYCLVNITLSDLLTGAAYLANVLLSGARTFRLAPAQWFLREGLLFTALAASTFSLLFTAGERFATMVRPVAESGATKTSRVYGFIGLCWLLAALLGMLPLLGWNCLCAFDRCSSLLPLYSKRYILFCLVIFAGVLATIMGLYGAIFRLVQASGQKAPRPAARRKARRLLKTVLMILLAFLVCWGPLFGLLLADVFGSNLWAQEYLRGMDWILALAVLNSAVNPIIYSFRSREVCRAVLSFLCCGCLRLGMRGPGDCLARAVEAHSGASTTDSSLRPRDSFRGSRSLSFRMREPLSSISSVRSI
DNA dC->dU-editing enzyme APOBEC-3G, sequence (Q9HC16 whole entry): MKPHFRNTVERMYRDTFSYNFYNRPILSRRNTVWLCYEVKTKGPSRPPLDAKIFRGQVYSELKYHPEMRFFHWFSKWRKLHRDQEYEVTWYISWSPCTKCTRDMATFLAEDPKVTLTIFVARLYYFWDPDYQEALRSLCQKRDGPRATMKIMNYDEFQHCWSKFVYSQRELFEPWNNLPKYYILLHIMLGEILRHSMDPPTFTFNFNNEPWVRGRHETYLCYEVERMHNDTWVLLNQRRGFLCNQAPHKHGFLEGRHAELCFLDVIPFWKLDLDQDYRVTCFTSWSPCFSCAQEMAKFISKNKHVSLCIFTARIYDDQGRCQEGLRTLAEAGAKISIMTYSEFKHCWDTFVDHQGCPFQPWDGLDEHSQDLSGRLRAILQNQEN
Sphingosine 1-phosphate receptor 5, sequence (Q9H228 whole entry): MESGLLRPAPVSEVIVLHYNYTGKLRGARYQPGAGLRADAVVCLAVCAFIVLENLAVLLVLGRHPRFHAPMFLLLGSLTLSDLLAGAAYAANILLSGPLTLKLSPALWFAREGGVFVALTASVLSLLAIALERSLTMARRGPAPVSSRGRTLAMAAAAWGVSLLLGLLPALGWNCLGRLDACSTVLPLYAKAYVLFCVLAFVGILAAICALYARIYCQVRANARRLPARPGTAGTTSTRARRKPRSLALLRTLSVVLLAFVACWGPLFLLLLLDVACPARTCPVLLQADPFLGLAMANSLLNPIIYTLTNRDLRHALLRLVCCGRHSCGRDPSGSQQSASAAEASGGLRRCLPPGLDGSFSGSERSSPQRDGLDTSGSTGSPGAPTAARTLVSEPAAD
Sphingosine 1-phosphate receptor 3, sequence (Q99500 whole entry): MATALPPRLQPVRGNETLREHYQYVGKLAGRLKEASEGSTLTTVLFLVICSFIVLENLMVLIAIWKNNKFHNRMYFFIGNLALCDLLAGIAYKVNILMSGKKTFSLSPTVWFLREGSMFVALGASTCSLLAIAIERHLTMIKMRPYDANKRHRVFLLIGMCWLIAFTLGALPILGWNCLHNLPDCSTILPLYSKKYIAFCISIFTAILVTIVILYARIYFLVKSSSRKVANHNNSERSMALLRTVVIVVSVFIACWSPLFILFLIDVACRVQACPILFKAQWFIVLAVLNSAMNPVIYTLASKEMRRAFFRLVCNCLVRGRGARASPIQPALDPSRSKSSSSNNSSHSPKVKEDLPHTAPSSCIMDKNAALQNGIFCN

CN(CC1CCCN(CCc2ccc(Cl)cc2)C1)C(=O)c1cc2ncccn2n1 (stereo not drawn)
IC50 [1]: > 99 µM (inactive)
IC50 [2]: > 99 µM (inactive)

O=C(c1cc(C2CC2)on1)N(C1CCCCCC1)C1CCCC1
EC50 [3]: > 50 µM (inactive)
EC50 [4]: > 50 µM (inactive)

C/N=C1/S/C(=C/c2cc(C)n(-c3ccc(F)cc3F)c2C)C(=O)N1C
EC50 [5]: 4.47 µM (active)
EC50 [6]: > 25 µM (inactive)
EC50 [7]: > 25 µM (inactive)
EC50 [8]: > 25 µM (inactive)
